Assay results taken from US9456589B2, “Elasmobranch-repelling compounds and methods of use” (priority 2005, dated 2016).
“And” between values parts separate entries of the source, which are not always exact repeats. Identical values can stand only once. “Also recorded” adds a separate entry of the source. Like-named read-outs stand apart in the source and are kept apart here.

Assays:
Type in all cases: in vivo
[1] = tested on: juvenile lemon and nurse sharks; assay: Tonic immobility, Micropipette Assay, summary over species; details: for Micropipette Y (termination of tonic immobility), trials of trials: oral dose; for screening result: lemon and nurse sharks
Method: (§1) One bioassay used to observe and measure flight response is the tonic immobility test. Tonic immobility is a state of paralysis that typically occurs when a shark is subject to inversion of its body along the longitudinal axis. This state is called “tonic,” and the shark can remain in this state for up to 15 minutes thereby allowing researchers to observe effects of chemical repellents. The “tonic” state of the shark is first established by releasing seawater in proximity to the “tonic” shark with the same delivery instrument and at the same distance as a “test” repellent compound will be released. Some controls are released with a high flow rate (30 mL/sec) in order to establish that sharks are not awakened by a jet of fluid over their noses. Once behavioral controls are established, a compound or composition that may have a repelling effect is delivered to the shark. If the compound or composition engenders a flight response, the shark will awaken from the tonic state and rapidly attempt to flee the delivered repellent. Using this tonic immobility bioassay researches can quantify the strength of a repellent effect.
A fourth method of delivery was called the “Micropipette Assay” method of delivery. In this method, a very small dose (fraction of a mL) of a test substance was delivered directly into a shark's mouth. […] A response, such as a cough or other notable action of the shark, was usually noted when effective gustatory repellents were delivered directly into a shark's mouth while in tonic immobility.
The Micropipette Assay method has not proven to be a particularly effective method of assaying for a flight response in elasmobranchs. The Micropipette Assay method is, nevertheless, an excellent method for specifying that a gustatory response has occurred. It is effective for specifying a gustatory response because the micropipette delivery method allows direct delivery of an entire bolus of test substance into the mouth of the shark being tested.
An oral dose of no more than 400 microliters was then delivered by micropipette into the mouth of a juvenile nurse shark. Tonic immobility was terminated. For each derivative of butyric acid and each naturally occurring acid listed in Table 9, a first micropipette assay was performed on a juvenile lemon shark with no more than 100 microliters of test acid in an oral dose. A second micropipette assay was then performed on a juvenile nurse shark with no more than 400 microliters of test acid in an oral dose. In each test, tonic immobility was terminated.
In a first set of studies on the effectiveness of carboxylic acids as elasmobranch repellents, each tested substance was subjected to the following protocol. […] An oral dose of no more than 400 microliters was then delivered by micropipette into the mouth of a juvenile nurse shark. Tonic immobility was terminated. […] The data evidences the gustatory repelling activity of carboxylic acids.

[2] = tested on: sharks (species pooled); assay: Tonic immobility, total of delivery methods not including Micropipette assays; details: species and delivery methods pooled
Method: as §1
Table 1, which summarizes the data in Tables 14 and 15, evidences the gustatory repellent characteristics of methylbutanals. In 35 of 36 assays (combining columns “Y” and “R” under the column labeled “Total (Not including Micropipette Assays)” to arrive at a 97% effectiveness rate), including assays on lemon, nurse, tiger and blacktip sharks, the gustatory repellent activity of 3-methylbutanal was established. In 81% of assays, tonic immobility was fully terminated. […] In only a single assay did a shark not respond to treatment with 3-methylbutanal.

[3] = tested on: sharks (lemon, nurse, tiger pooled); assay: Tonic immobility, Hd Syringe Assay, summary over species; details: for lowest volume of repellent that terminated tonic immobility: Hd Syringe, lemon and nurse sharks; for Hd-Syringe Y (termination of tonic immobility), trials of trials: species pooled
Method: as §1
In Hd-Syringe Assays, the 3-methylbutanal was delivered to the shark's mouth and nares using a 3 mL hypodermic syringe fitted with a 22 gauge needle. The needle was held within 3 inches of the shark's mouth and the test repellent was slowly released from the syringe with a very fine plume in the water column. Any response was denoted. If a response occurred during a measurable time after delivery of the test chemical, the time between delivery and response was noted. If a response occurred immediately or the response occurred before a measurable time could be established, no time to response was noted.

[4] = tested on: sharks (lemon, nurse, blacknose, blacktip pooled); assay: Tonic immobility, Syringe Assay, summary over species
Method: as §1
A second delivery method called the “Syringe Assay” method delivered a dose of 60 mL or more of a test chemical repellent from at least one foot, and up to as many as five feet, from a shark. The distance of delivery was determined based on the strength of the water current in the direction of the shark. Time from delivery of the test substance until response was observed, measured and recorded. The “Syringe” method allows a researcher to observe how a diffusing and diluting cloud of test chemical repellent affects the shark's behavior when the shark encounters the delivered cloud of test substance. The “Syringe” method requires relatively large doses because of the diffusion of the cloud over time and distance. Time from delivery to response is related to the size of the bolus delivered from the syringe, distance of the shark from the syringe and water current.
In the Syringe assay about 60 mL or more of valeraldehyde was delivered from one to as many as five feet from the shark depending on the water current. […] Time from delivery to response was related to the size of the bolus delivered from the syringe, distance of the shark from the syringe and water current.

[5] = tested on: sharks (lemon, nurse, blacktip, tiger, blacknose pooled); assay: Tonic immobility, Syringe 3/5/10 Assay, summary over species
Method: as §1
In the tonic immobility studies disclosed herein, several different methods were employed for delivery of repelling compounds. A first method for delivery of chemical repellent in tonic immobility studies employed a “Syringe 3/5/10 Assay” method. The “Syringe 3/5/10 Assay” method is so named because a test repellent is delivered to a shark from a distance of about “3” inches with a bolus of about “5” mL with a response to the test repellent considered positive if the shark reacts with a change in behavior within less than about “10” seconds from the time of delivery.
The “3/5/10 Syringe Assay” as employed herein delivered a dose of 5-6 mL of a test chemical repellent from a syringe fixed with a needle having a gauge of about 22 from a distance at least 3 inches in front of a shark. Because the test chemical repellent was delivered at a distance from the shark's nares and mouth, a cloud of test chemical repellent was dispersed over the shark within the water column. The dispersed test repellent was subject to water current direction, dispersion and dilution. As a result, a flight response within 10 seconds was considered a positive repellency response. […] Time from delivery to response is related to the size of the bolus delivered from the syringe, distance of the shark from the syringe and water current.
In Syringe 3/5/10 Assays, 5-6 mL of 3-methylbutanal was delivered at least 3 inches in front of the shark's mouth. A cloud of the repellent dispersed over the shark within the water column. […] As noted above, because the dispersion of the chemical repellent upon delivery is affected by volume of repellent, water current, and other factors, the time between delivery and response was not correlatable with the potency of the repellent.

[6] = juvenile lemon and nurse sharks

Row | Compound | Micropipette Y (termination of tonic immobility), trials of trials [1, 6] | screening result [1] | Total (Not including Micropipette assays / Effective Delivery Methods) Y, trials of trials [2] | Syringe Y (termination of tonic immobility), trials of trials [4] | further results
1 | CCC(C)(C)C(=O)O [2,2-Dimethylbutyric Acid] | 2/2 | repellents |  |  | 
2 | CC(C)C(C)C(=O)O (stereo not shown) [2,3-Dimethylbutyric Acid] | 2/2 | repellents |  |  | 
3 | CCC(CC)C(=O)O [2-Ethylbutyric Acid] | 2/2 | repellents |  |  | 
4 | CCC(=O)C(=O)O [2-Ketobutyric Acid] | 2/2 | repellents |  |  | 
5 | CCC(C)C=O (stereo not shown) [2-methylbutanal] |  |  | 5/5 |  | lowest volume of repellent that terminated tonic immobility [3]: 200 µL; Hd-Syringe Y (termination of tonic immobility), trials of trials [3]: In each assay tonic immobility was terminated and five of five and 5/5
6 | CC=C(C)C=O [2-methylbutenal] |  |  |  |  | lowest volume of repellent that terminated tonic immobility [3]: 300 µL; Hd-Syringe Y (termination of tonic immobility), trials of trials [3]: All assays resulted in termination of tonic immobility and four of four and 4/4; Hd-Syringe Y (termination of tonic immobility), trials of trials ([3]; listed as 2-Methylbutenal): 4/4
7 | CC(N)CC(=O)O (stereo not shown) [3-Aminobutyric Acid] | 2/2 | repellents |  |  | 
8 | C=CCC(=O)O [3-Butenoic Acid (vinylacetic acid), 3-Butenoic Acid] | 2/2 | shark repelling compounds |  |  | 
9 | CC(C)=CC=O [3-methylbutenal] |  |  |  |  | lowest volume of repellent that terminated tonic immobility [3]: 350 µL; Hd-Syringe Y (termination of tonic immobility), trials of trials [3]: All assays resulted in termination of tonic immobility and four of four and 4/4; Hd-Syringe Y (termination of tonic immobility), trials of trials ([3]; listed as 3-Methylbutenal): 4/4
10 | CC(=O)CCCC(=O)O [4-Acetylbutyric Acid] | 2/2 | repellents |  |  | 
11 | COc1ccc(C=O)cc1 [Anisaldehyde, anisaldehyde] |  |  |  | 1/1 | 
12 | CCCCCC=O [Capronaldehyde, capronaldehyde] |  |  | 1/1 | 1/1 | Total Y, percent of trials [2]: 100%
13 | O=C/C=C/c1ccccc1 [Cinnimaldehyde, trans-cinnimaldehyde] |  |  | 2/2 | 2/2 | Syringe Y (termination of tonic immobility), trials of trials ([4]; listed as cinnimaldehyde): two of two; Syringe Y (termination of tonic immobility), trials of trials ([4]; listed as trans-cinnimaldehyde): resulted in termination of tonic immobility
14 | O=C(O)CC(O)C(=O)O (stereo not shown) [Hydroxysuccinic Acid] | 2/2 |  |  |  | 
15 | CC(C)C=O [Isobutyraldehyde, isobutyraldehyde] |  |  | 4/4 | 4/4 | Syringe Y (termination of tonic immobility), trials of trials ([4]; listed as isobutyraldehyde): All resulted in termination of tonic immobility; Total Y, percent of trials [2]: 100%
16 | CCC=O [Propionaldehyde, propionaldehyde] |  |  | 4/4 | 4/4 | Syringe Y (termination of tonic immobility), trials of trials ([4]; listed as propionaldehyde): All resulted in termination of tonic immobility; Total Y, percent of trials [2]: 100%
17 | CC/C=C/C=O [Trans-pentenal, trans-pentenal] |  |  | 5/5 |  | Hd-Syringe Y (termination of tonic immobility), trials of trials [3]: 5/5; Hd-Syringe Y (termination of tonic immobility), trials of trials ([3]; listed as Pentenal): 5/5
18 | O=C(O)CC(CC(=O)O)C(=O)O [Tricarballylic Acid] | 2/2 |  |  |  | 
19 | CC(C)(C)C=O [Trimethylacetaldehyde, trimethylacetaldehyde] |  |  | 6/7 | 1/2 | Syringe N (no response), trials of trials [4]: 1/2; Micropipette assays with a behavioral response within tonic immobility [1, 6]: change of behavior during tonic immobility; Total (Not including Micropipette assays / Effective Delivery Methods) N, trials of trials [2]: 1/7; Total Y, percent of trials [2]: 100%; Total (Not including Micropipette assays / Effective Delivery Methods) Y, trials of trials ([2]; listed as trimethylacetaldehyde): resulted in termination of tonic immobility; Hd-Syringe Y (termination of tonic immobility), trials of trials [3]: 5/5
20 | CCCCC=O [Valeraldehyde, valeraldehyde] |  |  | 6/6 | 1/1 | Micropipette assays with a gustatory response (termination or behavior change) [1, 6]: six of six; also recorded: all Micropipette assays showed a response; Total Y, percent of trials [2]: 100%; Total (Not including Micropipette assays / Effective Delivery Methods) Y, trials of trials ([2]; listed as valeraldehyde): terminated tonic immobility; also recorded: six of six; Hd-Syringe Y (termination of tonic immobility), trials of trials [3]: 5/5
21 | CC(O)C(=O)O (stereo not shown) [lactic acid] |  |  |  |  | Syringe 3/5/10 N (no response), trials of trials [5]: no behavioral change and 1/3; Syringe 3/5/10 Y (termination of tonic immobility), trials of trials [5]: two of three and 2/3
22 | O=C(O)/C=C/c1ccccc1 [trans-Cinnamic acid] | 2/2 |  |  |  | 
